Legend:
Set-up in all cases: key: 0: normal development; 1: Less damaged; 2: Slightly damaged; 3: Moderately damaged; 4: Severely damaged; 5: All killed
green foxtail [1] = assay: Foliar spread test for upland field; type: in vivo, Setaria viridis; settings: foliar spray 500 ppm, 3 weeks, rank vs non-treated
From the text: (§1) (0: normal development, 1: Less damaged, 2: Slightly damaged, 3: Moderately damaged, 4: Severely damaged, 5: All killed).
(§2) Wagner pots, each having an area of 1/5000 are, were packed with volcanic ash soil and then each seed of corn, soybean, cotton, wheat, solgum, sugar beat, Large crabgrass, barnyardgrass, green foxtail, blackgrass, annual bluegrass, common lambsquartes, livid amaranth, velvetleaf and morning glory was planted, covered with soil and grown in a glass house at an average temperature of […] for about 2 weeks.
(§3) Each wettable powder of the desired compounds (I) shown in Table 1 prepared in accordance with Example 2 was diluted to 500 ppm with water containing a surfactant (0.5%) and then uniformly sprayed on the above respective plants.
(§4) After these plants were controlled in a glass house at an average temperature of 25° C. for 3 weeks, the herbicidal effects thereof were investigated.
(§5) The herbicidal effects were evaluated according to the evaluation method described in the above (1).

green foxtail [2] = assay: Soil treatment test for upland field; type: in vivo, Setaria viridis; settings: 500 g/ha, glass house 25° C., 3 weeks
Outline: (§6)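 Seeds planted in Wagner pots of Ube soil (alluvial) and covered. Wettable powder diluted in 0.05% surfactant water, sprayed uniformly onto soil at 500 g/ha effective rate. Grown 3 weeks, glasshouse, mean 25° C, then damage rated visually 0–5.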

common lambsquartes [3] = assay: Foliar spread test for upland field; type: in vivo, Chenopodium album; settings: foliar spray 500 ppm, 3 weeks, rank vs non-treated
From the text: as §1, §2, §3, §4, §5

blackgrass [4] = assay: Soil treatment test for upland field; type: in vivo, Alopecurus aegualis; settings: 500 g/ha, glass house 25° C., 3 weeks
Outline: as §6

morning glory = assay: Foliar spread test for upland field; type: in vivo, Ipomoea spps.; settings: foliar spray 500 ppm, 3 weeks, rank vs non-treated
From the text: as §1, §2, §3, §4, §5

Large crabgrass [5] = assay: Soil treatment test for upland field; type: in vivo, Digitaria adscendens; settings: 500 g/ha, glass house 25° C., 3 weeks
Outline: as §6

monochoria = assay: Herbicidal test for paddy field; type: in vivo, Monochoria vaginalis; settings: paddy field pot, 500 g/ha dropwise at 1.5 leaf stage of barnyardgrass, 3 weeks, rank vs non-treated
Method: (§7) Wagner pots, each having an area of 1/5000 are, were packed with Ube soil (alluvial soil) and planted with seeds or tubers of young rice plant, barnyardgrass, bulrush, flat sedge and monochoria. Then, the pots were filled with water to a depth of 3 cm.
(§8) Each wettable powder of the desired compounds (I) shown in Table 1 prepared in accordance with Example 2 was diluted with water containing a surfactant (0.05%) and subjected to dropwise addition treatment by using pipet so that an effective concentration of the compound (I) in each herbicide became 500 g/ha at 1.5 leaf stage of barnyardgrass.
(§9) These plants were controlled in a glass house at an average temperature of 25° C. for 3 weeks, and then herbicidal effects thereof were investigated.
(§10) The herbicidal effects are evaluated according to the following 6 ranks as compared with non-treated district.
as §1

bulrush = assay: Herbicidal test for paddy field; type: in vivo, Scrips juncoides; settings: paddy field pot, 500 g/ha dropwise at 1.5 leaf stage of barnyardgrass, 3 weeks, rank vs non-treated
Method: as §7, §8, §9, §10, §1

livid amaranth [6] = assay: Foliar spread test for upland field; type: in vivo, Amaranthus lividus; settings: foliar spray 500 ppm, 3 weeks, rank vs non-treated
From the text: as §1, §2, §3, §4, §5

livid amaranth [7] = assay: Soil treatment test for upland field; type: in vivo, Amaranthus lividus; settings: 500 g/ha, glass house 25° C., 3 weeks
Outline: as §6

young rice plant = assay: Herbicidal test for paddy field; type: in vivo; settings: paddy field pot, 500 g/ha dropwise at 1.5 leaf stage of barnyardgrass, 3 weeks, rank vs non-treated
Method: as §7, §8, §9, §10, §1

annual bluegrass [8] = assay: Soil treatment test for upland field; type: in vivo, Poa annua; settings: 500 g/ha, glass house 25° C., 3 weeks
Outline: as §6

velvetleaf [9] = assay: Soil treatment test for upland field; type: in vivo, Abutilon theophrasti; settings: 500 g/ha, glass house 25° C., 3 weeks
Outline: as §6

velvetleaf [10] = assay: Foliar spread test for upland field; type: in vivo, Abutilon theophrasti; settings: foliar spray 500 ppm, 3 weeks, rank vs non-treated
From the text: as §1, §2, §3, §4, §5

corn [11] = assay: Foliar spread test for upland field; type: in vivo; settings: foliar spray 500 ppm, 3 weeks, rank vs non-treated
From the text: as §1, §2, §3, §4, §5

solgum [12] = assay: Foliar spread test for upland field; type: in vivo; settings: foliar spray 500 ppm, 3 weeks, rank vs non-treated
From the text: as §1, §2, §3, §4, §5

sugar beat [13] = assay: Foliar spread test for upland field; type: in vivo; settings: foliar spray 500 ppm, 3 weeks, rank vs non-treated
From the text: as §1, §2, §3, §4, §5

wheat [14] = assay: Foliar spread test for upland field; type: in vivo; settings: foliar spray 500 ppm, 3 weeks, rank vs non-treated
From the text: as §1, §2, §3, §4, §5

common lambsquartes [15] = assay: Soil treatment test for upland field; type: in vivo, Chenopodium album; settings: 500 g/ha, glass house 25° C., 3 weeks
Outline: as §6

corn [16] = assay: Soil treatment test for upland field; type: in vivo; settings: 500 g/ha, glass house 25° C., 3 weeks
Outline: as §6

solgum [17] = assay: Soil treatment test for upland field; type: in vivo; settings: 500 g/ha, glass house 25° C., 3 weeks
Outline: as §6

soybean = assay: Soil treatment test for upland field; type: in vivo; settings: 500 g/ha, glass house 25° C., 3 weeks
Outline: as §6

cotton = assay: Soil treatment test for upland field; type: in vivo; settings: 500 g/ha, glass house 25° C., 3 weeks
Outline: as §6

sugar beat [18] = assay: Soil treatment test for upland field; type: in vivo; settings: 500 g/ha, glass house 25° C., 3 weeks
Outline: as §6

wheat [19] = assay: Soil treatment test for upland field; type: in vivo; settings: 500 g/ha, glass house 25° C., 3 weeks
Outline: as §6

annual bluegrass [20] = assay: Foliar spread test for upland field; type: in vivo, Poa annua; settings: foliar spray 500 ppm, 3 weeks, rank vs non-treated
From the text: as §1, §2, §3, §4, §5

Large crabgrass [21] = assay: Foliar spread test for upland field; type: in vivo, Digitaria adscendens; settings: foliar spray 500 ppm, 3 weeks, rank vs non-treated
From the text: as §1, §2, §3, §4, §5

barnyardgrass = assay: Soil treatment test for upland field; type: in vivo, Echinochloa crusgalli; settings: 500 g/ha, glass house 25° C., 3 weeks
Outline: as §6

blackgrass [22] = assay: Foliar spread test for upland field; type: in vivo, Alopecurus aegualis; settings: foliar spray 500 ppm, 3 weeks, rank vs non-treated
From the text: as §1, §2, §3, §4, §5

Structure (SMILES)	Effects Green foxtail (green foxtail [1])	Effects Green foxtail (green foxtail [2])	Effects Common lambsquarters (common lambsquartes [3])	Effects Blackgrass (blackgrass [4])	Effects Large crabgrass (Large crabgrass [5])	Effects Livid amaranth (livid amaranth [6])	Effects Livid amaranth (livid amaranth [7])	Effects Annual bluegrass (annual bluegrass [8])	Effects Velvetleaf (velvetleaf [9])	Effects Velvetleaf (velvetleaf [10])	Effects Corn (corn [11])	Effects Solgum (solgum [12])	Effects Sugar beat (sugar beat [13])	Effects Wheat (wheat [14])	Effects Common lambsquarters (common lambsquartes [15])	Effects Corn (corn [16])	Effects Solgum (solgum [17])	Effects Soybean (soybean)	Effects Cotton (cotton)	Effects Sugar beat (sugar beat [18])	further results
CCC(Oc1ccc(F)c(C(F)(F)F)c1)c1nc2cc(C#N)c(C#N)cc2o1 (centres unmarked) [Compound 316]	5	5	3	4	5	5	5	4	5	3	2	1	5	1	5	0	0	0	0	5	Effects Morning glory (morning glory): 2; Effect Monochoria (monochoria): 5; Effect Bulrush (bulrush): 3; Effect Young rice plant (young rice plant): 0; Effects Wheat (wheat [19]): 0
CCC(Oc1ccc(F)c(C(F)(F)F)c1)c1nc2cc(OC)ccc2o1 (centres unmarked) [Compound 503]	5	5	5	5	5	5	5	5	5	3	2	2	4	2	5	2	2	1	1	5	Effects Annual bluegrass (annual bluegrass [20]): 3; Effects Large crabgrass (Large crabgrass [21]): 3; Effects Barnyardgrass (barnyardgrass): 5; Effects Wheat (wheat [19]): 2
CCC(Oc1cccc(C(F)(F)F)c1)c1nc2cc(F)c(Cl)cc2o1 (centres unmarked) [Compound 496]	4	5	5	5	5	5	5	5	5	3	2	2	5	2	5	0	1	0	1	5	Effects Annual bluegrass (annual bluegrass [20]): 2; Effects Large crabgrass (Large crabgrass [21]): 3; Effects Barnyardgrass (barnyardgrass): 3; Effects Blackgrass (blackgrass [22]): 3; Effects Wheat (wheat [19]): 1
